Experimental findings from publication PMC5833010 (ACS Central Science, 2018) are described below.

In one assay the test system is BRC1. Description: qRT-PCR of strigolactone-responsive gene BRC1 in seedlings. Type of assay: in vivo, Arabidopsis. Conditions: 10-day-old seedlings, 1 μM (+)-GR24 alone, 24 h. (Real-time PCR tracks product formation cycle by cycle.)
The subject of the next assay is STH7. Description: qRT-PCR of strigolactone-responsive gene STH7 in seedlings. Conditions: 10-day-old seedlings, 1 μM (+)-GR24 alone, 24 h. Type of assay: in vivo, Arabidopsis.
In a further assay the target is T1, AtD14-GFP fusion protein (Arabidopsis thaliana, UniProt Q9SQR3).
T1 sequence (Q9SQR3 1-267): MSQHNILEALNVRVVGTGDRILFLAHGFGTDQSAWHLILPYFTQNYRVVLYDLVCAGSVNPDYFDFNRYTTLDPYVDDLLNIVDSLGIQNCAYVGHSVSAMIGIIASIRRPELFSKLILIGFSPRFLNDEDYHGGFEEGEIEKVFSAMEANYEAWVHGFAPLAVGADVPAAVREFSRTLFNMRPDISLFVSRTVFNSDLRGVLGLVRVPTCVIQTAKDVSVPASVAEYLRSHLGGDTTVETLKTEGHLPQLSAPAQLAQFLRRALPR
Description: AtD14-GFP degradation in 35S::AtD14-GFP/atd14-1 seedlings. Type of assay: in vivo. Conditions: 1 μM (+)-GR24 alone, 24 h.

On to (+)-GR24, for which, in the assay on BRC1, the “expression of BRC1” value is listed as “increased”. Also, in the assay on STH7, the “expression of STH7” value is on record as “increased”. For the same substance, at AtD14-GFP fusion protein, the “GFP signal in hypocotyl (AtD14-GFP)” value is “striking reduction”.
